Test results reported in ChEMBL document CHEMBL1201862, “PubChem BioAssay data set” (2004).
Active and inactive are the calls of the source.

What was measured:
Steroidogenic factor 1 = Steroidogenic factor 1 (Homo sapiens, UniProt Q13285); assay: Counterscreen for inverse agonists of the liver receptor homolog-1 (LRH-1; NR5A2): Luminescence-based cell-based high throughput dose response assay to identify inverse agonists of the Steroidogenic Factor 1 Nuclear Receptor (SF1; NR5A1).; assay type: functional
[1] = nonselective StAR promoter luciferase inhibitors – cell-based, luminescence, luciferase reporter, counter-screen for LRH-1 inverse agonist project, dose response (AID 651969); assay type: functional
[2] = molecular target: Nuclear receptor subfamily 5 group A member 2 (Homo sapiens, UniProt O00482); assay type: functional, cell-based;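 also: HEK293T cells transfected with LRH-1 and a StAR promoter luciferase reporter; potency for inhibitors that lower LRH-1 driven reporter light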
[3] = non-specific 3'UTR reporter inhibition in Clone20-Shn3RL – cell-based, Renilla luciferase, cherry-picked, counter-screen for Shn3 inhibitor project, dose response (AID 624133); assay type: functional
[4] = molecular target: Neurotensin receptor type 1 (Homo sapiens, UniProt P30989); assay type: functional;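 also: Image-based confirmatory dose-response assay measuring agonist activity at NTR1; NTR1-expressing U2OS osteosarcoma cells imaged for beta-arrestin GFP spot formation; agonist potency where compounds increase beta-arrestin recruitment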
[5] = loss of viability in HepG2 cells – cell-based, CellTiter-Glo, cherry-picked, cytotoxicity control for Shn3 inhibitor project, dose response (AID 624134); assay type: functional
[6] = Luminescence Cell-Based Dose Retest to Confirm Inhibitors of Cancer Stem Cells. [Related pubchem assays (depositor defined):AID2717, AID2721]; assay type: functional; details: Homo sapiens
Protein Wnt-3a = Protein Wnt-3a (Mus musculus, UniProt P27467); assay: antagonism of Wnt3a pathway luciferase reporter – Wnt-LIGHT cells, luminescence, selectivity assay for Gli-SUFU antagonist project, dose response (AID 651570); assay type: functional; details: read-out: IC50_Mean;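 also: Wnt-LIGHT reporter cells stimulated with conditioned medium from Wnt3a-producing cells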
[7] = reduction of Shn3 3'UTR-driven luciferase in osteoblasts – cell-based, Clone20 osteoblasts, firefly luciferase, cherry-picked, dose response (AID 624132); assay type: functional;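 also: firefly luciferase luminescence from reporter carrying the Shn3 3'UTR in osteoblasts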
[8] = activation of miR-122 Renilla sensor silencing – cell-based, Huh7 psiCHECK-miR122, Renilla luciferase, cherry-picked, dose response (AID 651956); assay type: functional;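 also: huh7 hepatoma cells stably carrying a psiCHECK-2 miR-122 sensor plasmid; renilla luciferase signal reporting endogenous miR-122 activity after 48 h compound exposure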
[9] = Luminescence Cell-Based Dose Confirmation HTS to Identify Activators of 5'UTR Stem-Loop Driven Alpha-Synuclein mRNA Translation in H4 Neuroglioblastoma Cells. [Related pubchem assays: 1829 (Project Summary), 1814 (Primary HTS)]; assay type: functional
[10] = molecular target: ADP-ribosylation factor GTPase-activating protein 1 (Rattus norvegicus, UniProt Q62848); assay: Fluorescence polarization-based biochemical high throughput dose response screening assay to identify inhibitors of ADP-ribosylation factor GTPase activating protein 1 (ARFGAP1).; assay type: functional
cells [11] = assay type: functional, cell-based
cells [12] = assay type: functional, cell-based; remark: listed apart in the source
[13] = Luminescence Cell-Based Dose Response HTS to Identify Activators of Luciferase Translation or Activity in H4 […] Cells. [Related pubchem assays: 1829 (Project Summary), 1814 (Primary HTS)]; assay type: functional
H4 = assay: Luminescence Cell-Based Dose Response HTS to Identify Activators of 5'UTR Stem-Loop Driven Prion Protein mRNA Translation in H4 Neuroglioblastoma Cells. [Related pubchem assays: 1829 (Project Summary), 1814 (Primary HTS)]; assay type: functional; details: Homo sapiens
[14] = molecular target: T1, Orexin/Hypocretin receptor type 1 (Homo sapiens, UniProt O43613); assay: Homogeneous Time Resolved Fluorescence (HTRF)-based cell-based high throughput dose response assay for antagonists of the orexin 1 receptor (OX1R; HCRTR1). [Related pubchem assays (depositor defined):AID434989, AID435008, AID463079, AID485270, AID492963, AID492964, AID492965, AID493232, AID504717, AID504718]; assay type: functional
T1 sequence (O43613 whole entry): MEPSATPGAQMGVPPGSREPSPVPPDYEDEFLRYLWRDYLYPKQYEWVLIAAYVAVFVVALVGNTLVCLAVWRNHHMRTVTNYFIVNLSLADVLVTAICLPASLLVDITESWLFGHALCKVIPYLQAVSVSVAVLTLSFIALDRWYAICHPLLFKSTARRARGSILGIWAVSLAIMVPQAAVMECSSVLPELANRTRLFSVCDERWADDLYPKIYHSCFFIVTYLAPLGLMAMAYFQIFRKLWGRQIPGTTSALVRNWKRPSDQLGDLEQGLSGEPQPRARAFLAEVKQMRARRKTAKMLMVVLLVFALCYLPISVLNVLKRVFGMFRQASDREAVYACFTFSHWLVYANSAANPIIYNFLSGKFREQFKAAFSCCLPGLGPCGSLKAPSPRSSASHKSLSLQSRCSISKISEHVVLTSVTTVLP

[15] = (§1) Counterscreen for antagonists of the orexin 1 receptor (OX1R; HCRTR1): Fluorescence-based cell-based high throughput dose response assay to identify antagonists of the parental CHO cell line. [Related pubchem assays (depositor defined):AID434989, AID435008, AID463079, AID485270, AID492963, AID492964, AID492965, AID493232, AID504699, AID504701]; assay type: functional
Orexin receptor type 2 [16] = molecular target: T2, Orexin receptor type 2 (Homo sapiens, UniProt O43614); assay: Counterscreen assay for antagonists of the orexin 1 receptor (OX1R; HCRTR1): Fluorescence-based cell-based dose response assay for antagonists of the orexin 2 receptor (OX2R; HCRTR2), run by assay provider.; assay type: functional
T2 sequence (O43614 whole entry): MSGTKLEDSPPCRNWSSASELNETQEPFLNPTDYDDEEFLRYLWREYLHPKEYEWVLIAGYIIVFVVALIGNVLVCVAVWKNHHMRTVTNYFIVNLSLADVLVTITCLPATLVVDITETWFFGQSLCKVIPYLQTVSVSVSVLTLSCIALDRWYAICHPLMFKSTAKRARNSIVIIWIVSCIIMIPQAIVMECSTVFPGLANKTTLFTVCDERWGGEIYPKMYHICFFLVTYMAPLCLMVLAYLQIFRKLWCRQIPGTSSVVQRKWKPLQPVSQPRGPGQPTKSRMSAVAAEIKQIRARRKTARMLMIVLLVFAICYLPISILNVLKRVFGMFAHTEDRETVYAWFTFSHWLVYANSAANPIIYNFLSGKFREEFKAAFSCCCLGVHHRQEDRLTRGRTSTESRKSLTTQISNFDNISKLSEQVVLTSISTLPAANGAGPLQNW

[17] = molecular target: T1, Orexin/Hypocretin receptor type 1; assay: Fluorescence-based cell-based high throughput dose response assay for antagonists of the orexin 1 receptor (OX1R; HCRTR1). [Related pubchem assays (depositor defined):AID434989, AID435008, AID463079, AID485270, AID492963, AID492964, AID492965, AID493232, AID504717, AID504718]; assay type: functional
Orexin receptor type 2 [18] = molecular target: T2, Orexin receptor type 2; assay: Counterscreen assay for antagonists of the orexin 1 receptor (OX1R; HCRTR1): Homogeneous Time Resolved Fluorescence (HTRF)-based cell-based dose response assay for antagonists of the orexin 2 receptor (OX2R; HCRTR2), run by assay provider.; assay type: functional
CHO-K1 = assay: as §1, with “Homogeneous time resolved fluorescence (HTRF)-based” for “Fluorescence-based”, “cell-based” for “cell-based high throughput”, “CHO-K1” for “CHO”; assay type: functional; details: Cricetulus griseus;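 also: potency for inhibition of ATP-stimulated IP1 production as antagonists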
[19] = molecular target: T3, Small ubiquitin-related modifier 1 (Homo sapiens, UniProt P63165); assay: SUMO1 protein interaction blockers, potency – biochemical, fluorescence polarization, uHTS hits, dose response (AID 624382); assay type: functional; details: read-out: IC50_Mean
[20] = molecular target: T3, Small ubiquitin-related modifier 1; assay: SUMO1 protein-protein binding blockers, potency – biochemical, FRET, dose response (AID 624383); assay type: functional; details: read-out: IC50_Mean
Beta-lactamase [21] = molecular target: Beta-lactamase (Pseudomonas aeruginosa, UniProt Q79MP6);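 also: biochemical dose-response test of metallo-beta-lactamase enzyme inhibition, read out by epi-absorbance; purified recombinant IMP-1 metallo-beta-lactamase with nitrocefin as substrate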
Beta-lactamase [22] = molecular target: Beta-lactamase (Salmonella choleraesuis (strain SC-B67), UniProt Q5J463)
Beta Lactamase = Beta Lactamase (Pseudomonas aeruginosa, UniProt Q932Y6);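 also: confirmatory high-throughput screen measuring VIM-2 metallo-beta-lactamase inhibition by epi-absorbance in dose response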
Sequence of Beta Lactamase (Q932Y6 whole entry): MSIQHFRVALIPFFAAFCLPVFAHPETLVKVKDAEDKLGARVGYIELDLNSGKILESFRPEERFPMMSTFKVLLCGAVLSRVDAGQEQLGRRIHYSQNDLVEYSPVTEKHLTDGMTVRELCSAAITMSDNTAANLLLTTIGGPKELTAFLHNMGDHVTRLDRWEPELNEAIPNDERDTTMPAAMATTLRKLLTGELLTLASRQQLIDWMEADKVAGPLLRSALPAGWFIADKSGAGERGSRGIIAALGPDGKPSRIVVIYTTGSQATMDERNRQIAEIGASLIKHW

T3 sequence (P63165 whole entry): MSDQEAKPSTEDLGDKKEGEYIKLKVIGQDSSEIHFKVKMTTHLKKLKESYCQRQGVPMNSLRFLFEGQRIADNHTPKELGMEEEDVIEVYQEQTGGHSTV
Sequence of Neurotensin receptor type 1 (P30989 whole entry): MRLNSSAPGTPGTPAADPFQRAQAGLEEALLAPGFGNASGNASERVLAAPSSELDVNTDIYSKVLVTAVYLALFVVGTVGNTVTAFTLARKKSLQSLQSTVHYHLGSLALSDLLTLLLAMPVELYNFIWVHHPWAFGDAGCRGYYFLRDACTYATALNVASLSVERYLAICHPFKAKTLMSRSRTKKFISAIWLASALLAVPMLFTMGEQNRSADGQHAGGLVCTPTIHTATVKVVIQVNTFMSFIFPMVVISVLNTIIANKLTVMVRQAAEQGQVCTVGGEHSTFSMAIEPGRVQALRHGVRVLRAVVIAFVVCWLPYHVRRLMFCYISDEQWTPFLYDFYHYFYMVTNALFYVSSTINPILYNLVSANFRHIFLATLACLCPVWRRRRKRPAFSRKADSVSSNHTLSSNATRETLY
Sequence of Steroidogenic factor 1 (Q13285 whole entry): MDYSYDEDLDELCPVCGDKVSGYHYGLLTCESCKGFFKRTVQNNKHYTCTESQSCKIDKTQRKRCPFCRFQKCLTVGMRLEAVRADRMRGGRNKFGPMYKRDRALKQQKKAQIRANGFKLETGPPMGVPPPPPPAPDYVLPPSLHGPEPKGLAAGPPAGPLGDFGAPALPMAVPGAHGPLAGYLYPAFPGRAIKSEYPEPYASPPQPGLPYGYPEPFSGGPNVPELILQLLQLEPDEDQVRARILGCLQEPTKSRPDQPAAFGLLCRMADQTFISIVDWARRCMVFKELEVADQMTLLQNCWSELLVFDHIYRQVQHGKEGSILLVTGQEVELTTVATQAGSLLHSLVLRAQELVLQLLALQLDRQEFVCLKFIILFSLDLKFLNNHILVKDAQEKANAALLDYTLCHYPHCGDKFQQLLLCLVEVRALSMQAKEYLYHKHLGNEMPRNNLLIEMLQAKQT
Sequence of Beta-lactamase (Salmonella choleraesuis (strain SC-B67), UniProt Q5J463) (Q5J463 whole entry): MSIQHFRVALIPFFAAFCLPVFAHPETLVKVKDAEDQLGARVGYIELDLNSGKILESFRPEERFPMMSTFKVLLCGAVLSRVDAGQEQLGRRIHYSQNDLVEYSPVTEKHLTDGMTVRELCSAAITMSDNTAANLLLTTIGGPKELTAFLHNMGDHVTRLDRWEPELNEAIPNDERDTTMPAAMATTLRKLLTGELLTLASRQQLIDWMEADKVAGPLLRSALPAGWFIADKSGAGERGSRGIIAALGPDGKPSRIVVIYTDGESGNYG
Sequence of Nuclear receptor subfamily 5 group A member 2 (O00482 whole entry): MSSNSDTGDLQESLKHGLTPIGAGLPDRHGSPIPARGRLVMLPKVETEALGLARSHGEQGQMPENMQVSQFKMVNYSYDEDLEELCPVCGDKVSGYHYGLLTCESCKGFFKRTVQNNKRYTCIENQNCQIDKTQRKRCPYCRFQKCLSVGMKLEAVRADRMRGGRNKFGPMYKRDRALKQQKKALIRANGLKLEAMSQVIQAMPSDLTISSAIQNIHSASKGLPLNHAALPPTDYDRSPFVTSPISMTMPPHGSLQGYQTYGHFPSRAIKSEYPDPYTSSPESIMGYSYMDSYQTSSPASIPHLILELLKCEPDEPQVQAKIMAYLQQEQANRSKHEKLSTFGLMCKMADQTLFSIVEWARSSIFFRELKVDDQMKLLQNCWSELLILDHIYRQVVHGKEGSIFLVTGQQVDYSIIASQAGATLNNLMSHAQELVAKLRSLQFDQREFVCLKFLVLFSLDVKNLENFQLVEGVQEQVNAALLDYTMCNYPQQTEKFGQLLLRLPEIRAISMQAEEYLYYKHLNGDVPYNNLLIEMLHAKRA
Sequence of ADP-ribosylation factor GTPase-activating protein 1 (Q62848 whole entry): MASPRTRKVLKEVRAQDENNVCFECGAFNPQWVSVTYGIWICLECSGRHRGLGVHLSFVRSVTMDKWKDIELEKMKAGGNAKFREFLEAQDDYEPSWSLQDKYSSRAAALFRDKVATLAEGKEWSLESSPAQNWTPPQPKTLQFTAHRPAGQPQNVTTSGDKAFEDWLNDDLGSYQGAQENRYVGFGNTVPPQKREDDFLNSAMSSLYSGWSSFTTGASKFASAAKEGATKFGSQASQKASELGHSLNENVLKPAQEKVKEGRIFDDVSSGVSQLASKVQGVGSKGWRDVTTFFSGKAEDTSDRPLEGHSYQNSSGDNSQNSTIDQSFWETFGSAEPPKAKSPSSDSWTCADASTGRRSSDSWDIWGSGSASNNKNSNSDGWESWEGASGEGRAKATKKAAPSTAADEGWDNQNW
Sequence of Protein Wnt-3a (P27467 whole entry): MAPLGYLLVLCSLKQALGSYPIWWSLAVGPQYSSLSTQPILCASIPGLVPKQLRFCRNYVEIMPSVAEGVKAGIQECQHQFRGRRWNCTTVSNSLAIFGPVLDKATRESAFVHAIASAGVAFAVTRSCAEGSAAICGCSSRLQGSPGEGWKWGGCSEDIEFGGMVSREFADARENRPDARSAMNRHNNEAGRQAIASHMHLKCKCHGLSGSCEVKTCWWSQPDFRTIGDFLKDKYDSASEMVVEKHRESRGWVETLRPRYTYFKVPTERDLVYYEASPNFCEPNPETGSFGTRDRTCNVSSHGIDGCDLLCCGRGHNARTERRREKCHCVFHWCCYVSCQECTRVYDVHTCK
Sequence of Beta-lactamase (Pseudomonas aeruginosa, UniProt Q79MP6) (Q79MP6 whole entry): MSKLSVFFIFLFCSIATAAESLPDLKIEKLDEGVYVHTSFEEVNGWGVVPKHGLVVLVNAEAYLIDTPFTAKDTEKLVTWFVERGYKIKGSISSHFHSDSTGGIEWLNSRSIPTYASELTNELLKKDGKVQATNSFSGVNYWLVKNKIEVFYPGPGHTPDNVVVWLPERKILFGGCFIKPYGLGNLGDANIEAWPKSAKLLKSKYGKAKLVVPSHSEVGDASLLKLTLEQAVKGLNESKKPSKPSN

Compound: Cc1cccc(NC(=O)COC(=O)CN2C(=O)c3ccccc3C2=O)c1C
- IC50 (Steroidogenic factor 1): 5.33 µM (active)
- IC50 [1]: 35.9 µM (inactive)
- IC50 [2]: 46.7 µM (inactive)

Compound: CCCCNc1c(-c2ccc(OC)c(Sc3ccc(OC)cc3)c2)nc2ccccn12
- AC50 [3]: 4.38 µM (active)
- EC50 [4]: 32.2 µM (inactive)
- AC50 [5]: 48.4 µM (active)
- AC50 [6]: 6 µM (active)
- IC50 (Protein Wnt-3a): 11.5 µM (active)
- AC50 [7]: 0.821 µM (active)

Compound: COc1cccc(NC(=O)N(C)C[C@@H]2Oc3ncc(C#Cc4ccncc4)cc3C(=O)N([C@@H](C)CO)C[C@H]2C)c1
- AC50 [8]: 36.1 µM (active)

Compound: Cc1ccc2nc(SCC(=O)c3ccccc3)nc(=O)n2c1
- EC50 [9]: 33.8 µM (active)
- IC50 [10]: 52.5 µM (inactive)
- EC50 (cells [11]): 37.8 µM (active)
- EC50 (cells [12]): > 350 µM (not active)
- EC50 [13]: 11 µM (active)
- EC50 (H4): 24 µM (active)

Compound: CC(NC(C)c1ccccc1Cl)C(=O)Nc1cccc(S(=O)(=O)N2CCCCC2)c1 (configuration not stated)
- IC50 [14]: 0.238 µM (active)
- IC50 [15]: 48.8 µM (inactive)
- IC50 (Orexin receptor type 2 [16]): 18.9 µM (inactive)
- IC50 [17]: 3.25 µM (active)
- IC50 (Orexin receptor type 2 [18]): > 50 µM (inactive)
- IC50 (CHO-K1): > 66.2 µM (inactive)

Compound: CC(=O)c1cccc(NC(=O)c2cccc3c(-c4cccc(C(N)=O)c4)coc23)c1
- IC50 [19]: > 66.6 µM (inactive)
- IC50 [20]: 20.4 µM (inactive)

Compound: O=C1C2C(c3ccccc3)C=CC(c3ccccc3)C2C(=O)N1c1ccncc1 (configuration not stated)
- IC50 (Beta-lactamase [21]): 14.6 µM (inactive)
- IC50 (Beta-lactamase [22]): > 59.6 µM (inactive)
- IC50 (Beta Lactamase): 62.4 µM (inactive)
